Results on 36 molecules are retold here after patent US10034886B2, “GLP-1 receptor modulators” (Celgene International II SÀRL, priority 2014, dated 2018).

T1 sequence (P43220 24-463): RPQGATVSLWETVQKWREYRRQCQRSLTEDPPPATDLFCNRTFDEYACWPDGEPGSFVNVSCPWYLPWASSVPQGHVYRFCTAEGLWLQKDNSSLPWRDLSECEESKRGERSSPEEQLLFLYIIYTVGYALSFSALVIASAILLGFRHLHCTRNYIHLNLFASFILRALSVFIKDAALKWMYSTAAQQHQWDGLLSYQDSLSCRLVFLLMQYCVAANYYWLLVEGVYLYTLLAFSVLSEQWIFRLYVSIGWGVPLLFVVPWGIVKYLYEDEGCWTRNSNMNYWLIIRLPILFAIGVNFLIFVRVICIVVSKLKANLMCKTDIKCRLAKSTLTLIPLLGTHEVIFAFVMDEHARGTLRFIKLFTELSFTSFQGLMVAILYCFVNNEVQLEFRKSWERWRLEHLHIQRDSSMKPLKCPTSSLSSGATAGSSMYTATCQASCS
T1 sequence (P01275 100-127 partner limits assumed): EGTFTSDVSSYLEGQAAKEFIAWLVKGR

The first assay has as its target T1, GLP-1R (Homo sapiens, UniProt P43220).
T1 construct: host or cells: GLP-1R CRE-bla CHO-K1 cells
Description: EC20 GLP-1(9-36) PAM cAMP assay: dose response of compound in the presence of fixed concentration of GLP-1(9-36). The conditions noted are these: EC20 GLP-1(9-36) PAM EC50, dose response of compound in presence of fixed concentration of GLP-1(9-36), GLP-1R CRE-bla CHO-K1 cells. The class given is cell-based. Summed up:
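GLP-1R CRE-bla CHO-K1 cells treated 30 min at 37 °C with 12-point compound dose response plus fixed EC20 GLP-1(9-36), with IBMX, in HBSS/HEPES/0.1% BSA pH 7.4. Total cAMP measured by luminescent detection against standard curve; EC50 and Emax from non-linear regression.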
One may read the EC50 as the concentration at which the effect is half-maximal. `CCCCCCCOc1ccc(-c2cnc(-c3ccc(C[C@H](NC(=O)c4ccc(C(C)(C)C)s4)C(=O)N4CC[C@H](c5nnn[nH]5)C4)cc3)nc2)cc1` [Compound 886]: the EC50 lay in the range of 800 to 2500 nM.

Still in this assay, the particulars now being: dose response of compound in presence of fixed concentration of GLP-1(9-36), GLP-1R CRE-bla CHO-K1 cells, read-out: EC20 GLP-1(9-36) PAM EC50.
For `CCCCCCCOc1ccc(-c2cnc(-c3ccc(C[C@H](NC(=O)c4ccc(CC)cc4)C(=O)N4CC[C@H](C(=O)O)C4)cc3)nc2)cc1` [Compound 855], the EC50 is 800 to 2500 nM.
Same read-out and setting: the same measure for `CCCCCCCOc1ccc(-c2cnc(-c3ccc(C[C@H](NC(=O)c4cnc(C(C)(C)C)nc4)C(=O)N4CC[C@H](C(=O)O)C4)cc3)nc2)cc1` [Compound 856]: 800 to 2500 nM; for `CCCCCCCOc1ccc(-c2cnc(-c3ccc(C[C@H](NC(=O)c4ccc(C5CC5)cc4)C(=O)N4CC[C@H](C(=O)O)C4)cc3)nc2)cc1` [Compound 857]: 5000 to 10000 nM; for `CCCCCCCOc1ccc(-c2cnc(-c3ccc(C[C@H](NC(=O)c4ccc(C(C)(C)CC)cc4)C(=O)N4CC[C@H](C(=O)O)C4)cc3)nc2)cc1` [Compound 859]: 2500 to 5000 nM.
The same measure, in the same setting: the figure for `CCCCCCCOc1ccc(-c2cnc(-c3ccc(C[C@H](NC(=O)c4ccc(C(C)(C)C#N)cc4)C(=O)N4CC[C@H](C(=O)O)C4)cc3)nc2)cc1` [Compound 860] is 800 to 2500 nM.
On the same count and under the same terms, the figure for `CCCCCCCOc1ccc(-c2cnc(-c3ccc(C[C@H](NC(=O)c4cnn(C(C)(C)C)c4C)C(=O)N4CC[C@H](C(=O)O)C4)cc3)nc2)cc1` [Compound 861] is 2500 to 5000 nM; for `CCCCCCCOc1ccc(-c2cnc(-c3ccc(C[C@H](NC(=O)c4ccc(C(C)(C)C)c(OC)c4)C(=O)N4CC[C@H](C(=O)O)C4)cc3)nc2)cc1` [Compound 862] it is 800 to 2500 nM.
Consider `CCCCCCCOc1ccc(-c2cnc(-c3ccc(C[C@H](NC(=O)c4ccc(CC)s4)C(=O)N4CC[C@H](C(=O)O)C4)cc3)nc2)cc1` [Compound 863], for which the EC50 lay within 800 to 2500 nM.
Same read-out and setting: the figure for `CCCCCCCOc1ccc(-c2cnc(-c3ccc(C[C@H](NC(=O)c4ccc(CCC)s4)C(=O)N4CC[C@H](C(=O)O)C4)cc3)nc2)cc1` [Compound 864] is 800 to 2500 nM.
On to `CCCCCCCOc1ccc(-c2cnc(-c3ccc(C[C@H](NC(=O)c4ccc(C5CC5)s4)C(=O)N4CC[C@H](C(=O)O)C4)cc3)nc2)cc1` [Compound 865], for which the EC50 fell in the range of 800 to 2500 nM.
Still for that read-out and setting: the figure for `CCCCCCCOc1ccc(-c2cnc(-c3ccc(C[C@H](NC(=O)c4sc(C(C)(C)C)cc4C)C(=O)N4CC[C@H](C(=O)O)C4)cc3)nc2)cc1` [Compound 866] is 2500 to 5000 nM; for `CCCCCCCOc1ccc(-c2cnc(-c3ccc(C[C@H](NC(=O)c4cnn(C(C)(C)C)c4)C(=O)N4CC[C@H](C(=O)O)C4)cc3)nc2)cc1` [Compound 867] it is 800 to 2500 nM.
`CCCCCCCOc1ccc(-c2cnc(-c3ccc(C[C@H](NC(=O)c4ccc(C(C)(C)C)cc4C)C(=O)N4CC[C@H](C(=O)O)C4)cc3)nc2)cc1` [Compound 868]: the EC50 was 800 to 2500 nM.
The same measure, in the same setting: the figure for `CCCCCCCOc1ccc(-c2cnc(-c3ccc(C[C@H](NC(=O)c4ccc(N5CCCC5)cc4)C(=O)NCCC(=O)O)cc3)nc2)cc1` [Compound 869] is 2500 to 5000 nM; for `CCCCCCCOc1ccc(-c2cnc(-c3ccc(C[C@H](NC(=O)c4ccc(N5CCCC5)cc4)C(=O)N[C@@H](C)C(=O)O)cc3)nc2)cc1` [Compound 870] it is 800 to 2500 nM.
The same measure, in the same setting: the figure for `CCCCCCCOc1ccc(-c2cnc(-c3ccc(C[C@H](NC(=O)c4ccc(C(C)(C)C)s4)C(=O)N4C[C@@H](F)C[C@@H]4C(=O)O)cc3)nc2)cc1` [Compound 871] is 2500 to 5000 nM; for `CCCCCCCOc1ccc(-c2cnc(-c3ccc(C[C@H](NC(=O)c4ccc(C(C)(C)C)s4)C(=O)N[C@H]4C[C@@H](C(=O)O)C4)cc3)nc2)cc1` [Compound 872] it is 800 to 2500 nM; for `CCCCCCCOc1ccc(-c2cnc(-c3ccc(C[C@H](NC(=O)c4ccc(C(C)(C)C)s4)C(=O)N4CC(OC)(C(=O)O)C4)cc3)nc2)cc1` [Compound 873] it is under 800 nM.
On to `CCCCCCCOc1ccc(-c2cnc(-c3ccc(C[C@H](NC(=O)c4ccc(C(C)(C)C)s4)C(=O)N4CC(C)(C(=O)O)C4)cc3)nc2)cc1` [Compound 874], for which the half-maximal effective concentration (EC50) fell in the range of 800 to 2500 nM.
The same measure, in the same setting: the figure for `CCCCCCCOc1ccc(-c2cnc(-c3ccc(C[C@H](NC(=O)c4ccc(C(C)(C)C)s4)C(=O)N[C@H]4C[C@H](C(=O)O)C4)cc3)nc2)cc1` [Compound 875] is 800 to 2500 nM; for `CCCCCCCOc1ccc(-c2cnc(-c3ccc(C[C@H](NC(=O)c4ccc(C(C)(C)C)s4)C(=O)NC4(C(=O)O)CC(F)(F)C4)cc3)nc2)cc1` [Compound 876] it is 800 to 2500 nM.
Turning to `CCCCCCCOc1ccc(-c2cnc(-c3ccc(C[C@H](NC(=O)c4ccc(C(C)(C)C)s4)C(=O)N4CC5(CC(C(=O)O)C5)C4)cc3)nc2)cc1` [Compound 877], the EC50 fell in the range of 800 to 2500 nM.
As for `CCCCCCCOc1ccc(-c2cnc(-c3ccc(C[C@H](NC(=O)c4ccc(C(C)(C)C)s4)C(=O)N4CC(F)(C(=O)O)C4)cc3)nc2)cc1` [Compound 878], the EC50 was under 800 nM.
On to `CCCCCCCOc1ccc(-c2cnc(-c3ccc(C[C@H](NC(=O)c4ccc(C(C)(C)C)s4)C(=O)NC[C@H]4C[C@H](N)C4)cc3)nc2)cc1` [Compound 879], for which the EC50 lay within 2500 to 5000 nM.
`CCCCCCCOc1ccc(-c2cnc(-c3ccc(C[C@H](NC(=O)c4ccc(C(C)(C)C)s4)C(=O)NC(C(=O)O)C(O)C(C)C)cc3)nc2)cc1` (stereo partly drawn) [Compound 880]: the EC50 was under 800 nM.
On to `CCCCCCCOc1ccc(-c2cnc(-c3ccc(C[C@H](NC(=O)c4ccc(C(C)(C)C)s4)C(=O)N[C@H](C(=O)O)[C@H](O)C(C)C)cc3)nc2)cc1` [Compound 881], for which the EC50 is 800 to 2500 nM.
`CCCCCCCOc1ccc(-c2cnc(-c3ccc(C[C@H](NC(=O)c4ccc(C(C)(C)C)s4)C(=O)NC(C(=O)O)C(O)C(F)(F)F)cc3)nc2)cc1` (stereo partly drawn) [Compound 882]: the concentration for a half-maximal effect (EC50) is 800 to 2500 nM.
For `CCCCCCCOc1ccc(-c2cnc(-c3ccc(C[C@H](NC(=O)c4ccc(C(C)(C)C)s4)C(=O)N[C@H](C(=O)O)[C@@H](N)c4ccccc4)cc3)nc2)cc1` [Compound 883], the half-maximal effective concentration (EC50) fell in the range of 5000 to 10000 nM.
Regarding `CCCCCCCOc1ccc(-c2cnc(-c3ccc(C[C@H](NC(=O)c4ccc(C(C)(C)C)s4)C(=O)N4CC[C@H](C(=O)NS(C)(=O)=O)C4)cc3)nc2)cc1` [Compound 884], the EC50 fell in the range of 800 to 2500 nM.
Still for that read-out and setting: the figure for `CCCCCCCOc1ccc(-c2cnc(-c3ccc(C[C@H](NC(=O)c4ccc(C(C)(C)C)s4)C(=O)N4CC[C@H](C(=O)Nc5nnn[nH]5)C4)cc3)nc2)cc1` [Compound 885] is 5000 to 10000 nM; for `CCCCCCCOc1ccc(-c2cnc(-c3ccc(C[C@H](NC(=O)c4ccc(C(C)(C)C)s4)C(=O)N4CC[C@H](C(=O)NS(=O)(=O)CC(F)(F)F)C4)cc3)nc2)cc1` [Compound 887] it is under 800 nM; for `CCCCCCCOc1ccc(-c2cnc(-c3ccc(C[C@H](NC(=O)c4ccc(C(C)(C)C)s4)C(=O)NC(C(=O)O)C(O)c4cccs4)cc3)nc2)cc1` (stereo partly drawn) [Compound 888] it is 800 to 2500 nM.
On the same count and under the same terms, the figure for `CCCCCCCOc1ccc(-c2cnc(-c3ccc(C[C@H](NC(=O)c4ccc(C(C)(C)C)s4)C(=O)N[C@@H](C(=O)O)C(C)C)cc3)nc2)cc1` [Compound 889] is 800 to 2500 nM.
Take `CCCCCCCOc1ccc(-c2cnc(-c3ccc(C[C@H](NC(=O)c4ccc(C(C)(C)C)s4)C(=O)NC(C(=O)O)C(OC)c4ccccc4)cc3)nc2)cc1` (stereo partly drawn) [Compound 890]: the half-maximal effective concentration (EC50) fell in the range of 800 to 2500 nM.
On to `CCCCCCCOc1ccc(-c2cnc(-c3ccc(C[C@H](NC(=O)c4ccc(C(C)(C)C)s4)C(=O)N4CCNCC4C(=O)O)cc3)nc2)cc1` (stereo partly drawn) [Compound 891], for which the EC50 was 800 to 2500 nM.
